Values joined by “and” are separate entries in the source; they are usually repeats but may differ in a detail not shown here. Equal values may be shown once.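 How tested: cells in 96-well plates exposed to compound for 48 hours at five concentrations. GI50 is the concentration that inhibits growth by half. TGI marks complete inhibition of growth.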
Columns and labels:
Assay in all cases: growth of human tumour cells (NCI), 48 h
SK-MEL-28 melanoma = tested on: SK-MEL-28 melanoma
TK-10 renal = tested on: TK-10 renal
SW-620 colon = tested on: SW-620 colon
HOP-62 NSCLC = tested on: HOP-62 NSCLC
SK-OV-3 ovarian = tested on: SK-OV-3 ovarian
HL-60(TB) leukemia = tested on: HL-60(TB) leukemia
786-0 renal = tested on: 786-0 renal
SF-268 CNS = tested on: SF-268 CNS
U251 CNS = tested on: U251 CNS
HS 578T breast = tested on: HS 578T breast

Compound | TGI (SK-MEL-28 melanoma) [µM] | TGI (TK-10 renal) [µM] | TGI (SW-620 colon) | TGI (HOP-62 NSCLC) [µM] | TGI (SK-OV-3 ovarian) [µM] | TGI (HL-60(TB) leukemia) [µM] | TGI (786-0 renal) [µM] | TGI (SF-268 CNS) | TGI (U251 CNS) [µM] | GI50 (SK-MEL-28 melanoma) [µM] | GI50 (TK-10 renal) [µM] | GI50 (SW-620 colon) [µM] | GI50 (HOP-62 NSCLC) [µM] | GI50 (SK-OV-3 ovarian) [µM] | GI50 (786-0 renal) [µM] | GI50 (SF-268 CNS) [µM] | GI50 (U251 CNS) [µM] | GI50 (HS 578T breast) [µM] | TGI (HS 578T breast) [µM] | GI50 (HL-60(TB) leukemia) [µM]
Cc1nc(N)nc(N)c1CCCCc1ccc(N)cc1 | 23.5 | 28.8 | 19.8 µM | 18.2 | 16.6 | 19.4 | 18.9 | 17.3 µM | 17.6 |  |  |  |  |  |  |  |  |  |  | 
Cc1cc(=O)oc2ccc(OC/C=C3\CCC(=O)O3)cc12 | 23.5 | 9.23 | 17.5 µM | 29.9 | 26.2 |  | 14.2 | 43.6 µM | 24.6 | 11.3 | 1.61 | 3.87 | 13.5 | 13.1 | 2.7 | 13.2 | 12.2 | 10.8 | 48.9 | 
Nc1ccc2n[se]nc2c1 | > 100 | > 100 | > 100 µM | > 100 | > 100 | > 100 | > 100 | > 100 µM | > 100 |  |  |  |  |  |  |  |  |  |  | 
CC(C)(CN1C(=O)C(Cl)=C(Cl)C1=O)CN1C(=O)C(Cl)=C(Cl)C1=O | 20 | 22.2 | 15.3 µM | 45.6 | > 58.9 | 2.84 | 28.6 | 41.5 µM | 38.7 |  |  |  |  |  |  |  |  |  |  | 
C[C@@]1([C@H](OC(=O)c2ccccc2)C(N)=O)CO1 | 53.2 | 73.7 | 95.2 µM | 64.9 | 66 |  | 59.4 | 50 µM | 37.5 | 20.6 | 19.8 | 22.6 | 21.8 | 28.3 | 22.6 | 19.4 | 17.1 | 34.4 | 92.7 | 
Nc1nncc2c1c(Br)cn2C1OC(CO)C(O)C1O (stereo not drawn) | > 100 | > 100 | > 100 µM | > 100 | > 100 | > 100 | > 100 | > 100 µM | > 100 |  |  |  |  |  |  |  |  |  |  | 
O=S1(=O)N2CN3CN(C2)CN1C3 | 225 | 692 | 57.8 µM and 113 µM | 624 | 868 | 62.8 | 179 | > 87.5 µM and 133 µM |  | 40.6 |  |  |  |  |  | 31.8 |  |  |  | 
CCOC(=O)C(C)(NC(=O)c1ccc(NCc2ccc3nc(NC(=O)c4ccccc4)nc(NC(=O)c4ccccc4)c3c2)cc1)C(=O)OCC | 27.6 | 48.9 | > 100 µM | 31.2 | 27.4 | > 100 | 13.3 | 28.7 µM | 21 |  |  |  |  |  |  |  |  |  |  | 
O=C1CC2OCC=C3CN4CCC56c7ccccc7N1C5C2C3CC46O (stereo not drawn) | > 100 | > 100 | > 100 µM |  | > 100 | > 100 | > 100 | > 100 µM | > 100 |  |  |  |  |  |  |  |  |  | > 100 | 
COC1C2C[C@@H](O)CCC2C(C(=O)OCCl)C[C@H]1O (stereo partly drawn) | > 100 | > 100 | > 100 µM | > 100 | > 100 | > 100 | > 100 | > 100 µM | > 100 |  |  |  |  |  |  |  |  |  |  | 
O=C1c2ccccc2C(=O)c2cc3c(cc21)CS(=O)C3 | > 100 | > 100 | > 100 µM | > 100 | > 100 | > 100 | > 100 | > 100 µM | > 100 |  |  |  |  |  |  |  |  |  |  | 
COc1cc(/C=C/C(=O)c2cccc(-n3cc(-c4cc(OC)c(OC)c(OC)c4)[nH]c3=O)c2)cc(OC)c1OC | 3.39 | 6.68 |  | 8.74 | > 100 | 6.39 | 3.14 | 7.47 µM | 3.71 | 1.61 | 3 |  | 3.08 | 5.12 | 1.59 | 2.2 | 1.23 | > 100 | > 100 | 0.922
O=[N+]([O-])c1ccc(C2=Nc3ccccc3S(=O)C(c3ccccc3)C2)cc1 (stereo not drawn) | 48.1 | 82.9 | 52.8 µM | 84.7 | 73.6 | 39.1 | 35.1 | > 100 µM |  |  |  |  |  |  |  |  |  |  |  | 
NC(N)=N/N=C/c1c(-c2ccsc2)nc2n1CCS2 |  | 61.1 | > 100 µM | 52.8 | > 100 |  | 38.7 | 82.2 µM | 35.7 |  | 26 | 33.2 | 19.8 | 35.4 | 15.4 | 18.4 | 14.6 | 34.9 | > 100 | 
CC(=O)C1CCN(c2ccccc2)C1 (stereo not drawn) | > 100 | > 100 | > 100 µM | > 100 | > 100 | > 100 | > 100 | > 100 µM | > 100 |  |  |  |  |  |  |  |  |  |  | 
O=C(O/N=C1\CCCC\C1=C/c1ccccc1)c1ccc([N+](=O)[O-])cc1 | > 100 |  | > 100 µM | > 100 | > 100 | > 100 | > 100 | > 100 µM | > 100 |  |  |  |  |  |  |  |  |  |  | 
COc1cc([N+](=O)[O-])c(OC)cc1-c1nc2sc(C)c(C)n2c1/C(N)=N/C(=N)N | > 100 | > 100 | > 100 µM | > 100 |  | > 100 | > 100 |  | > 100 | > 100 | > 100 | 9.8 | > 100 |  | > 100 |  | 2.29 |  |  | > 100
CN=c1ss/c(=N\C(=S)N(C)C)n1C | > 100 | > 100 | > 100 µM | > 100 | > 100 | > 100 | > 100 | > 100 µM | > 100 |  |  |  |  |  |  |  |  |  |  | 
O=C(c1ccc(O)cc1O)C1C(c2ccc(O)cc2)OC(c2ccc(O)cc2)C1C(=O)c1ccc(O)cc1O (stereo not drawn) | 36 | 49.8 | > 100 µM | 22.9 |  | 39.4 | 23.2 | 42.5 µM | 32.9 |  |  |  |  |  |  |  |  |  |  | 

Source: PubChem BioAssay (NCI)
